Experiments:
[1] = system: Euschistus heros (Neotropical Brown Stink Bug); test: whole plant or invertebrate; assay type: in vivo; details: 120 h, application rate of 200 ppm, N2 nymphs on sprayed soybean leaves, 5 days after infestation, read-out: effect in at least one of the two categories (mortality or growth inhibition)
[2] = system: Myzus persicae (Green Peach Aphid); test: whole plant or invertebrate; assay type: in vivo; details: 144 h, test rate of 24 ppm, systemic, roots of infested pea seedlings in test solution, 6 days
[3] = system: Plutella xylostella (Diamond Back Moth); test: whole plant or invertebrate; assay type: in vivo; details: 120 h, application rate of 200 ppm, L2 larvae on treated artificial diet, 5 days after infestation, read-out: effect in at least one of the two categories (mortality or growth inhibition)
[4] = system: Myzus persicae (Green Peach Aphid); test: whole plant or invertebrate; details: foliar, 144 h
[5] = system: Diabrotica Balteata (Corn Root Worm); test: Diabrotica balteata (Corn Root Worm); details: in Zea mays, 96 h, read-out: effect in at least one of the two categories (mortality or growth inhibition)
[6] = system: Spodoptera littoralis (Egyptian Cotton Leaf Worm); test: whole plant or invertebrate; details: in Gossypium barbadense, foliar, 72 h, read-out: control (mortality, anti-feeding effect, growth inhibition)

CCS(=O)(=O)c1cc(OC2COC2)cnc1-c1nc2cc(C(F)(F)F)ncc2n1C [Compound P1, 2-[3-ethylsulfonyl-5-(oxetan-3-yloxy)-2-pyridyl]-3-methyl-6-(trifluoromethyl)imidazo[4,5-c]pyridine]
≥ 80%: percent effect (mortality or growth inhibition) at 200 ppm [1] | mortality at 24 ppm [2] | percent effect (mortality or growth inhibition) at 200 ppm [3] | mortality at 200 ppm [4] | mortality at 200 ppm [5]

CCS(=O)(=O)c1cc(OC2(C)COC2)cnc1-c1nc2cc(C(F)(F)F)ncc2n1C [Compound P4, 2-[3-ethylsulfonyl-5-(3-methyloxetan-3-yl)oxy-2-pyridyl]-3-methyl-6-(trifluoromethyl)imidazo[4,5-c]pyridine]
≥ 80%: percent effect (mortality or growth inhibition) at 200 ppm [1] | mortality at 24 ppm [2] | percent effect (mortality or growth inhibition) at 200 ppm [3] | mortality at 200 ppm [4] | mortality at 200 ppm [5]

CCS(=O)(=O)c1cc(OC(F)(F)C(=O)N(C)C)cnc1-c1nc2cc(C(F)(F)F)ncc2n1C [Compound P6, 2-[[5-ethylsulfonyl-6-[3-methyl-6-(trifluoromethyl)imidazo[4,5-c]pyridin-2-yl]-3-pyridyl]oxy]-2,2-difluoro-N,N-dimethyl-acetamide]
≥ 80%: percent effect (mortality or growth inhibition) at 200 ppm [1] | mortality at 24 ppm [2] | percent effect (mortality or growth inhibition) at 200 ppm [3] | mortality at 200 ppm [4] | mortality at 200 ppm [5]

CCS(=O)(=O)c1cc(OCC(C)=O)cnc1-c1nc2cc(C(F)(F)F)ncc2n1C [Compound P65, 1-[[5-ethylsulfonyl-6-[3-methyl-6-(trifluoromethyl)imidazo[4,5-c]pyridin-2-yl]-3-pyridyl]oxy]propan-2-one]
≥ 80%: percent effect (mortality or growth inhibition) at 200 ppm [1] | mortality at 24 ppm [2] | percent effect (mortality or growth inhibition) at 200 ppm [3] | mortality at 200 ppm [4] | mortality at 200 ppm [5]

CCS(=O)(=O)c1cc(OCC2CCC2)cnc1-c1nc2cc(C(F)(F)F)ncc2n1C [Compound P69, 2-[5-(cyclobutylmethoxy)-3-ethylsulfonyl-2-pyridyl]-3-methyl-6-(trifluoromethyl)imidazo[4,5-c]pyridine]
≥ 80%: percent effect (mortality or growth inhibition) at 200 ppm [1] | mortality at 200 ppm [4] | mortality at 200 ppm [6] | mortality at 200 ppm [5]

C#CC(C)(C)Oc1cnc(-c2nc3cc(C(F)(F)F)ncc3n2C)c(SCC)c1 [Compound P82, 2-[5-(1,1-dimethylprop-2-ynoxy)-3-ethylsulfanyl-2-pyridyl]-3-methyl-6-(trifluoromethyl)imidazo[4,5-c]pyridine]
≥ 80%: percent effect (mortality or growth inhibition) at 200 ppm [1] | mortality at 200 ppm [6] | mortality at 200 ppm [5]

CCOC(=O)Oc1cnc(-c2nc3cc(C(F)(F)F)ncc3n2C)c(S(=O)(=O)CC)c1 [Compound P84, ethyl [5-ethylsulfonyl-6-[3-methyl-6-(trifluoromethyl)imidazo[4,5-c]pyridin-2-yl]-3-pyridyl] carbonate]
≥ 80%: mortality at 200 ppm [6]

CCS(=O)(=O)c1cc(OS(=O)(=O)C(F)(F)F)cnc1-c1nc2cc(C(F)(F)F)ncc2n1C [Compound P92, [5-ethylsulfonyl-6-[3-methyl-6-(trifluoromethyl)imidazo[4,5-c]pyridin-2-yl]-3-pyridyl] trifluoromethanesulfonate]
≥ 80%: mortality at 200 ppm [6]

CCS(=O)(=O)c1cc(O/N=C(\C)c2cc(F)cc(F)c2)cnc1-c1nc2cc(C(F)(F)F)ncc2n1C [Compound P96, (E)-1-(3,5-difluorophenyl)-N-[[5-ethylsulfonyl-6-[3-methyl-6-(trifluoromethyl)imidazo[4,5-c]pyridin-2-yl]-3-pyridyl]oxy]ethanimine]
≥ 80%: percent effect (mortality or growth inhibition) at 200 ppm [1] | percent effect (mortality or growth inhibition) at 200 ppm [3] | mortality at 200 ppm [6] | mortality at 200 ppm [5]
